≈ marks a conversion by molar mass, not a printed value. Like-named read-outs stand apart in the source and are kept apart here.
Assays:
[1] = in vivo; cited from earlier work
dogs = conditions: dog, in vivo; cited from earlier work
patients with cancer = conditions: cited from earlier work
[2] = Solubility of raw material (Table 1); type: physicochemical
Text: Table 1 summarizes the physical properties of the raw materials in the capsule.

rats = conditions: rat, in vivo; cited from earlier work
in vivo = conditions: female, CD1 nu/nu, mouse, ip
Procedure: To test whether the maximum tolerated dose (MTD) of vorinostat in mice can be increased with zinc supplementation, Mice (CD1 nu/nu female, 6-8 weeks old, Charles River Laboratories) are administered vehicle, 150 mg/kg (MTD) or 300 mg/kg vorinostat in vehicle (Table 11). Mice are given 0.5, 1, or 5 molar equivalents (relative to vorinostat) of zinc chloride. This corresponds to ZnCl2 doses of 38.5, 77, and 385 mg/kg for the 150 mg/kg vorinostat group.
Body weight and survival are monitored as indications of toxicity. Doses resulting in a group average body weight loss of more than 20% average will be considered non-tolerated. Likewise, doses resulting in the treatment-related death of more than 2 mice per group will be considered non-tolerated.

all animal species = conditions: cited from earlier work

## CC(=O)N(O)CCCCCNC(=O)CCC(=O)N(O)CCCCCNC(=O)CCC(=O)N(O)CCCCCN [Desferrioxamine]
[1]
  side effects: fatigue, bone marrow atrophy, thymic atrophy and neutropenia

## CC(=O)NO [Lithostat, acetohydroxamic acid]
[1]
  side effects: nausea, vomiting, anorexia, fatigue, malaise, reticulocytosis, anemia, thrombocytopenia, leukopenia and headache

## O=C(CCCCCCC(=O)Nc1ccccc1)NO [Suberoylanilide hydroxamic acid (SAHA), N-hydroxy-N′-phenyloctanediamide]
dogs
  Preclinical toxicity: gastrointestinal toxicity (mucosal atrophy, acute inflammation, necrosis, multiple lesions), dehydration, electrolyte loss, testicular atrophy
Patients with cancer
  Clinical adverse experiences or side effects: diarrhea, fatigue, nausea, thrombocytopenia, anorexia, dysgeusia, weight decrease, muscle spasms, alopecia, anemia, blood creatinine increase, vomiting, chills
[2]; 2% CIP100 aqueous solution, aqueous with cosolvent or surfactant or cyclodextrin, 2% CIP100 aqueous soln., read-out: Solubility in 2% CIP100 aqueous soln.
  solubility: 11.3 mg/mL (≈ 42.8 mM)
[2]; 2% SD-20 aqueous solution, aqueous with cosolvent or surfactant or cyclodextrin, 2% SD-20 aqueous soln., read-out: Solubility in 2% SD-20 aqueous soln.
  solubility: 0.085 mg/mL (≈ 0.322 mM)
[2]; in water, read-out: Solubility in Water
  solubility: < 0.1 mg/mL
[2]; organic solvent or mixture, in methanol, read-out: Solubility in Methanol
  solubility: 42 mg/mL (≈ 159 mM)
rats
  Preclinical toxicity: thrombocytopenia
In vivo
  MTD: 150 mg/kg
All animal species
  Preclinical toxicity: weight loss or inappetence, immune suppression (leucopenia, lymphopenia, thymic atrophy)
